Experimental data: patent US10093678B2, “Azaspiro derivatives as TRPM8 antagonists” (RaQualia Pharma Inc., priority 2014, dated 2018)
Where a name gives a salt, the structure may show the parent alone.

target: T1, human TRPM8 (Homo sapiens, UniProt Q7Z2W7); experiment: Menthol-induced Ca2+ influx in HEK293 cells stably expressing human TRPM8; format: cell-based; conditions: 30 microM menthol-induced Ca2+ influx, read-out: IC50 against TRPM8
T1 construct: expressed in transfected cells; host or cells: HEK293
Procedure: Measurement of the Menthol-Induced Ca^2+ Influx in HEK293 Cells Stably Expressing Human TRPM8
A cell-based Ca^2+ influx assay using HEK293 cells stably expressing human TRPM8 is used to identify the activity of compounds.
HEK293 cells stably expressing human TRPM8 are grown in T175 flasks at 37° C. in a 5% CO2 humidified incubator to about 80% confluence. Media composition consists of Dulbecco's Modified Eagle Medium (high glucose), 10% fetal calf serum (FCS), 100 units/mLPenicillin, 100 microg/mL Streptomycin and 600 microg/mL Geneticine. At 24 hours prior to assay, cells are seeded in poly-D-lysine coated 384-well plates (BD FALCON) at a density of 30,000 cells per well in culture medium and grown overnight in 5% CO2 at 37° C. On the assay day, growth media is removed and cells are loaded with 0.5 microM Fluo4-AM (Molecular Probes) and 0.005% Pluronic F-127 dissolved in assay buffer (Hank's balanced salt solution (HBSS), 19.4 mM HEPES pH7.4, 2.5 mM Probenecid) for 1 hour at room temperature. After washing with assay buffer, the cells are preincubated with various concentrations of the compounds for 5 min. The changes in intracellular calcium concentration by addition of 30 microM menthol are monitored by the cell imaging technology by Hamamatsu Photonics Functional Drug Screening System (FDSS).
The IC50 values for compounds of the present invention are determined from 11-point dose-response studies. Curves are generated using the average of duplicate wells for each data point. Finally, the IC50 values are calculated with the best-fit dose curve determined by XLfit (ID Business Solutions Ltd.).

T1 sequence (Q7Z2W7 whole entry): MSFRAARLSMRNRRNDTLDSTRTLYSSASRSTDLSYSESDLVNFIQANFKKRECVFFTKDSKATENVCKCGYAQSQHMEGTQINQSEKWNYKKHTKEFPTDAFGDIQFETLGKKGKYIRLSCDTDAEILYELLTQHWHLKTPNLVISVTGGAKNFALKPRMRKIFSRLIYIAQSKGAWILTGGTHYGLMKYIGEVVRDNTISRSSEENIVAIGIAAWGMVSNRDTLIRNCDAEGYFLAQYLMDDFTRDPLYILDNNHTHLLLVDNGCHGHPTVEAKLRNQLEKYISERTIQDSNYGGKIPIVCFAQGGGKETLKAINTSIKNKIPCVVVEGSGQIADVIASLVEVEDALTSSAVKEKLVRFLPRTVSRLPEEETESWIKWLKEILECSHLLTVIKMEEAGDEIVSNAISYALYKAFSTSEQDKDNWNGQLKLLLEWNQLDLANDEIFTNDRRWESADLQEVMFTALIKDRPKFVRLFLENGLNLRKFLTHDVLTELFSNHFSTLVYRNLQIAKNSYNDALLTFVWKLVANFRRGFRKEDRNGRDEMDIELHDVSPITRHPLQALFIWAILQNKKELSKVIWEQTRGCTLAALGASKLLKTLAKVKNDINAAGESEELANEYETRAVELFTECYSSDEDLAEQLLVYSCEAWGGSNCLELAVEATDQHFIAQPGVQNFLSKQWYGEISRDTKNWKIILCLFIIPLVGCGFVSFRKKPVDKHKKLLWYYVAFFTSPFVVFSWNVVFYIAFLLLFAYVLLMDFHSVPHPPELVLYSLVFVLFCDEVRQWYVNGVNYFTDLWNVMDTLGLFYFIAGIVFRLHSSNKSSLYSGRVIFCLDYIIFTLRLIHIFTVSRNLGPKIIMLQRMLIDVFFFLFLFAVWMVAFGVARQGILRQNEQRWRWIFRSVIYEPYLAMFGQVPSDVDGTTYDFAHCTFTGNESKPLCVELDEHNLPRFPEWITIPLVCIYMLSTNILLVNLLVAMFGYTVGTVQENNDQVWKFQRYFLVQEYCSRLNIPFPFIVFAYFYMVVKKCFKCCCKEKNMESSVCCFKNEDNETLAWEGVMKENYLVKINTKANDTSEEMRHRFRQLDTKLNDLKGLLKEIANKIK

| SMILES | IC50 [µM] |
| --- | --- |
| O=C1Cc2c(-c3ccc(C(=O)CN4C(=O)NC5(CCC(F)(F)CC5)C4=O)cc3)ccnc2N1 [Example 6-42] | < 0.5 |
| O=C(CN1C(=O)NC2(CCC(F)(F)CC2)C1=O)c1ccc(-c2cccc3ncncc23)cc1 [Example 6-45] | < 0.1 |
| O=C(CN1C(=O)NC2(CCC(F)(F)CC2)C1=O)c1ccc(-c2cccnc2NCCO)cc1 [Example 6-46] | < 0.5 |
| O=C(CN1C(=O)NC2(CCC(F)(F)CC2)C1=O)c1ccc(-c2cccnc2N2CC(O)C2)cc1 [Example 6-48] | < 0.5 |
| O=C(CN1C(=O)NC2(CCC(F)(F)CC2)C1=O)c1ccc(-c2cccc3c2CC(O)C3)cc1 (stereo not shown) [Example 6-49] | < 0.5 |
| O=C(CN1C(=O)NC2(CCC(F)(F)CC2)C1=O)c1ccc(-c2cccc3c2C(O)CC3)cc1 (stereo not shown) [Example 6-50] | < 0.5 |
| O=C(CN1C(=O)NC2(CCC(F)(F)CC2)C1=O)c1ccc(-c2ncnc3cnccc23)cc1 [Example 6-51] | < 0.5 |
| O=C1CCc2c(cccc2-c2ccc(C(=O)CN3C(=O)NC4(CCC(F)(F)CC4)C3=O)cc2)N1 [Example 6-52] | < 0.5 |
| CS(=O)(=O)c1ccccc1-c1ccc(C(=O)CN2C(=O)NC3(CCC(F)(F)CC3)C2=O)cc1 [Example 6-53] | < 0.5 |
| O=C(CN1C(=O)NC2(CCC(F)(F)CC2)C1=O)c1ccc(-c2nccnc2OCCO)cc1 [Example 6-54, 8,8-difluoro-3-(2-(4-(3-(2-hydroxyethoxy)pyrazin-2-yl)phenyl)-2-oxoethyl)-1,3-diazaspiro[4.5]decane-2,4-dione] | < 0.1 |
| NCc1ccccc1-c1ccc(C(=O)CN2C(=O)NC3(CCC(F)(F)CC3)C2=O)cc1 [Example 6-55, 3-(2-(2′-(aminomethyl)-[1,1′-biphenyl]-4-yl)-2-oxoethyl)-8,8-difluoro-1,3-diazaspiro[4.5]decane-2,4-dione hydrochloride] | < 0.1 |
| NCc1ncccc1-c1ccc(C(=O)CN2C(=O)NC3(CCC(F)(F)CC3)C2=O)cc1 [Example 6-56, 3-(2-(4-(2-(aminomethyl)pyridin-3-yl)phenyl)-2-oxoethyl)-8,8-difluoro-1,3-diazaspiro[4.5]decane-2,4-dione] | < 0.5 |
| CC(=O)NCc1ncccc1-c1ccc(C(=O)CN2C(=O)NC3(CCC(F)(F)CC3)C2=O)cc1 [Example 6-57, N-((3-(4-(2-(8,8-difluoro-2,4-dioxo-1,3-diazaspiro[4.5]decan-3-yl)acetyl)phenyl)pyridin-2-yl)methyl)acetamide] | < 0.1 |

Further lines, results first:

| IC50 [µM] | SMILES |
| --- | --- |
| < 0.1 | O=C(CN1C(=O)NC2(CCC(F)(F)CC2)C1=O)c1ccc(-c2n[nH]c3ccccc23)cc1 [Example 6-32] |
| < 0.1 | Cc1nc(-c2ccc(C(=O)CN3C(=O)NC4(CCC(F)(F)CC4)C3=O)cc2)c2ccccc2n1 [Example 6-33] |
| < 0.1 | Cc1ncncc1-c1ccc(C(=O)CN2C(=O)NC3(CCC(F)(F)CC3)C2=O)cc1 [Example 6-34] |
| < 0.1 | O=C(CN1C(=O)NC2(CCC(F)(F)CC2)C1=O)c1ccc(-c2cccc(O)c2)cc1 [Example 6-35] |
| < 0.1 | O=C(CN1C(=O)NC2(CCC(F)(F)CC2)C1=O)c1ccc(-c2ncccc2CO)cc1 [Example 6-36] |
| < 0.1 | O=C(CN1C(=O)NC2(CCC(F)(F)CC2)C1=O)c1ccc(-c2nccc3cnccc23)cc1 [Example 6-37] |
| < 0.1 | O=C(CN1C(=O)NC2(CCC(F)(F)CC2)C1=O)c1ccc(-c2cccn3ccnc23)cc1 [Example 6-38] |
| < 0.1 | CCOc1ncccc1-c1ccc(C(=O)CN2C(=O)NC3(CCC(F)(F)CC3)C2=O)cc1 [Example 6-39] |
| < 0.1 | CC(O)c1ccccc1-c1ccc(C(=O)CN2C(=O)NC3(CCC(F)(F)CC3)C2=O)cc1 (stereo not shown) [Example 6-40] |
| < 0.1 | O=C(CN1C(=O)NC2(CCC(F)(F)CC2)C1=O)c1ccc(-c2cnccc2C(F)(F)F)cc1 [Example 6-41] |
| < 0.1 | N#Cc1ccnnc1-c1ccc(C(=O)CN2C(=O)NC3(CCC(F)(F)CC3)C2=O)cc1 [Example 6-43] |
| < 0.1 | O=C(CN1C(=O)NC2(CCC(F)(F)CC2)C1=O)c1ccc(-c2nccc3ccncc23)cc1 [Example 6-44] |
